Laboratory results published in PubChem BioAssay AID248 (DTP/NCI, 2004).
“And” between values parts separate entries of the source, which are not always exact repeats. Equal entries are not always repeated. Toxic doses and inconclusive results are not listed. Rule as the data show it: active = T/C of 150% or more; inactive = T/C below 125%.

System: L1210 leukemia ip in BDF1 mice, survival T/C
Experiment: NCI In Vivo Anticancer Drug Screen. Data for tumor model L1210 Leukemia (intraperitoneal) in B6D2F1 (BDF1) mice
Conditions: endpoint: mean survival time, higher = longer survival
Procedure, shortened: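 Read-out is survival time, reported as the treated-group measurement over the vehicle-control measurement.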

[1] = dose: 50.0 mg/kg/injection, schedule: Q01DX009 (ip), vehicle: saline
[2] = dose: 100.0 mg/kg/injection, schedule: Q01DX009 (ip), vehicle: saline
[3] = dose: 100.0 mg/kg/injection, schedule: Q04DX003 (ip), vehicle: saline
[4] = dose: 200.0 mg/kg/injection, schedule: Q01DX009 (ip), vehicle: saline
[5] = dose: 200.0 mg/kg/injection, schedule: Q04DX003 (ip), vehicle: saline
[6] = dose: 100.0 mg/kg/injection, schedule: Q01DX001 (ip), vehicle: saline
[7] = dose: 200.0 mg/kg/injection, schedule: Q01DX001 (ip), vehicle: saline
[8] = dose: 400.0 mg/kg/injection, schedule: Q01DX001 (ip), vehicle: saline
[9] = dose: 100.0 mg/kg/injection, schedule: Q01DX009 (ip), vehicle: Klucel (hydroxypropylcellulose) (HPC)
[10] = dose: 100.0 mg/kg/injection, schedule: Q04DX002 (ip), vehicle: Klucel (hydroxypropylcellulose) (HPC)
[11] = dose: 200.0 mg/kg/injection, schedule: Q04DX002 (ip), vehicle: Klucel (hydroxypropylcellulose) (HPC)
[12] = dose: 200.0 mg/kg/injection, schedule: Q01DX009 (ip), vehicle: Klucel (hydroxypropylcellulose) (HPC)
[13] = dose: 400.0 mg/kg/injection, schedule: Q01DX009 (ip), vehicle: Klucel (hydroxypropylcellulose) (HPC)
[14] = dose: 100.0 mg/kg/injection, schedule: Q04DX003 (ip), vehicle: Klucel (hydroxypropylcellulose) (HPC)
[15] = dose: 200.0 mg/kg/injection, schedule: Q04DX003 (ip), vehicle: Klucel (hydroxypropylcellulose) (HPC)
[16] = dose: 400.0 mg/kg/injection, schedule: Q04DX003 (ip), vehicle: Klucel (hydroxypropylcellulose) (HPC)
[17] = dose: 50.0 mg/kg/injection, schedule: Q01DX001 (ip), vehicle: Klucel (hydroxypropylcellulose) (HPC)
[18] = dose: 100.0 mg/kg/injection, schedule: Q01DX001 (ip), vehicle: Klucel (hydroxypropylcellulose) (HPC)
[19] = dose: 200.0 mg/kg/injection, schedule: Q01DX001 (ip), vehicle: Klucel (hydroxypropylcellulose) (HPC)
[20] = dose: 400.0 mg/kg/injection, schedule: Q01DX001 (ip), vehicle: Klucel (hydroxypropylcellulose) (HPC)
[21] = dose: 100.0 mg/kg/injection, schedule: Q04DX003 (ip), vehicle: saline with Tween-80
[22] = dose: 200.0 mg/kg/injection, schedule: Q04DX003 (ip), vehicle: saline with Tween-80
[23] = dose: 400.0 mg/kg/injection, schedule: Q04DX003 (ip), vehicle: saline with Tween-80
[24] = dose: 100.0 mg/kg/injection, schedule: Q04DX003 (ip), vehicle: acetone
[25] = dose: 200.0 mg/kg/injection, schedule: Q04DX003 (ip), vehicle: acetone
[26] = dose: 400.0 mg/kg/injection, schedule: Q04DX003 (ip), vehicle: acetone
[27] = dose: 100.0 mg/kg/injection, schedule: Q01DX001 (ip), vehicle: carboxymethylcellulose (CMC)
[28] = dose: 200.0 mg/kg/injection, schedule: Q01DX001 (ip), vehicle: carboxymethylcellulose (CMC)
[29] = dose: 400.0 mg/kg/injection, schedule: Q01DX001 (ip), vehicle: carboxymethylcellulose (CMC)

Measured: T/C

CC(C)c1ccc(N2CSC(=S)N(c3ccc(C(C)C)cc3)C2)cc1
inactive: dose: 100.0 mg/kg/injection, schedule: Q04DX002 (sc), vehicle: olive oil, sesame oil, peanut oil 104 % of control | dose: 200.0 mg/kg/injection, schedule: Q04DX002 (sc), vehicle: olive oil, sesame oil, peanut oil 107 % of control | dose: 400.0 mg/kg/injection, schedule: Q04DX002 (sc), vehicle: olive oil, sesame oil, peanut oil 101 % of control

CC[As](=O)(O)CC
inactive: [1] 97 % of control | [2] 120 % of control | [3] 101 % of control | [4] 105 % of control | [5] 107 % of control

CN1CCN(c2nc3ccccc3n3nnnc23)CC1
inactive: dose: 37.5 mg/kg/injection, schedule: Q04DX003 (ip), vehicle: saline 104 % of control | dose: 75.0 mg/kg/injection, schedule: Q04DX003 (ip), vehicle: saline 107 % of control

CC(C)CCCC(C)C1CCC2C3CC=C4CC(O[N+](=O)[O-])CCC4(C)C3CCC12C (centres undefined)
inactive: dose: 100.0 mg/kg/injection, schedule: Q04DX002 (ip), vehicle: saline with Tween-80 102 % of control | dose: 200.0 mg/kg/injection, schedule: Q04DX002 (ip), vehicle: saline with Tween-80 112 % of control | dose: 400.0 mg/kg/injection, schedule: Q04DX002 (ip), vehicle: saline with Tween-80 102 % of control

COCCN1CCC(CO)C1 (centres undefined)
inactive: [6] 93 % of control | [7] 98 % of control | [8] 93 % of control

OC1(c2cccc(C(F)(F)F)c2)CCN(C2CC2)CC1
inactive: dose: 12.5 mg/kg/injection, schedule: Q04DX003 (ip), vehicle: Klucel (hydroxypropylcellulose) (HPC) 104 % of control | dose: 25.0 mg/kg/injection, schedule: Q04DX003 (ip), vehicle: Klucel (hydroxypropylcellulose) (HPC) 105 % of control | dose: 50.0 mg/kg/injection, schedule: Q04DX003 (ip), vehicle: Klucel (hydroxypropylcellulose) (HPC) 100 % of control

C[N+](C)(C)CN1C(=O)c2ccccc2C1=O
inactive: [1] 101 % of control | [2] 97 % of control | [4] 88 % of control

O=C(NO)c1ccccc1F
inactive: [6] 97 % of control | [7] 110 % of control | [8] 93 % of control

C=CCOC(=O)c1ccco1
inactive: dose: 25.0 mg/kg/injection, schedule: Q01DX009 (ip), vehicle: Klucel (hydroxypropylcellulose) (HPC) 98 % of control | dose: 50.0 mg/kg/injection, schedule: Q01DX009 (ip), vehicle: Klucel (hydroxypropylcellulose) (HPC) 106 % of control | [9] 94 % of control and 96 % of control

COc1cccc(NC(=O)Oc2ccc(Cl)cc2Cl)c1
inactive: [10] 88 % of control | [11] 88 % of control

COc1ccc(NC(=O)Oc2ccc(-c3ccccc3)cc2Cl)c(OC)c1
inactive: [9] 97 % of control | [12] 101 % of control | [13] 92 % of control

COc1ccc(Cl)cc1NC(=O)NC(Cc1ccccc1)c1ccccc1 (centres undefined)
inactive: [9] 102 % of control | [14] 101 % of control | [12] 100 % of control | [15] 103 % of control | [13] 105 % of control | [16] 103 % of control

CCCCCCCCCCCCCC(=O)OC1CCC2(C)C(=CCC3C2CCC2(C)C(C(C)CCCC(C)C)CCC32)C1 (centres undefined)
inactive: [17] 96 % of control | [18] 89 % of control | [19] 87 % of control and 89 % of control | [20] 87 % of control

Cc1nc2ccc(O)cc2cc1CBr
inactive: dose: 6.25 mg/kg/injection, schedule: Q01DX009 (ip), vehicle: saline 112 % of control | dose: 12.5 mg/kg/injection, schedule: Q01DX009 (ip), vehicle: saline 104 % of control | dose: 12.5 mg/kg/injection, schedule: Q04DX003 (ip), vehicle: saline 107 % of control | dose: 25.0 mg/kg/injection, schedule: Q01DX009 (ip), vehicle: saline 106 % of control | dose: 25.0 mg/kg/injection, schedule: Q04DX003 (ip), vehicle: saline 115 % of control | dose: 50.0 mg/kg/injection, schedule: Q04DX003 (ip), vehicle: saline 97 % of control

O=Cc1ccc(OC(=O)Nc2ccccc2)cc1
inactive: dose: 100.0 mg/kg/injection, schedule: Q01DX009 (ip), vehicle: saline with Tween-80 92 % of control | [21] 105 % of control | dose: 200.0 mg/kg/injection, schedule: Q01DX009 (ip), vehicle: saline with Tween-80 87 % of control | [22] 94 % of control | [23] 93 % of control

O=C1OC(Cl)(C(Cl)(Cl)Cl)C(=O)OC1(Cl)C(Cl)(Cl)Cl (centres undefined)
inactive: [24] 98 % of control | [25] 98 % of control | [26] 96 % of control

COC(=O)/C=C(/Nc1cccc2ccccc12)C(=O)OC
inactive: [17] 102 % of control | [18] 96 % of control | [19] 114 % of control

CCCCNC(C)(C)C(=O)c1cccs1
inactive: [3] 102 % of control | [5] 86 % of control

CCN(CC)C(=S)SS(C)(=O)=O
inactive: [6] 101 % of control | [24] 97 % of control | [7] 97 % of control | [25] 103 % of control | [8] 97 % of control | [26] 101 % of control

Cc1cc(C)cc(Cc2ccc3ccccc3c2)c1
inactive: [17] 109 % of control | [18] 98 % of control | [19] 96 % of control | [20] 90 % of control

NNC(=O)C1C2C=CC(C2)C1C(=O)NN (centres undefined)
inactive: [21] 103 % of control | [22] 91 % of control | [23] 100 % of control

O=C1c2ccccc2CCCC1Br (centres undefined)
inactive: [27] 95 % of control | [28] 87 % of control | [29] 92 % of control

CCN(CC)Cc1cc(C(=N)N)ccc1O
inactive: dose: 56.0 mg/kg/injection, schedule: Q01DX Z (ip), vehicle: carboxymethylcellulose (CMC) 101 % of control | dose: 83.0 mg/kg/injection, schedule: Q01DX Z (ip), vehicle: carboxymethylcellulose (CMC) 95 % of control | dose: 125.0 mg/kg/injection, schedule: Q01DX Z (ip), vehicle: carboxymethylcellulose (CMC) 98 % of control | dose: 187.5 mg/kg/injection, schedule: Q01DX Z (ip), vehicle: carboxymethylcellulose (CMC) 102 % of control

C[N+](C)(C)CCP(=O)([O-])O
inactive: [2] 101 % of control | [4] 93 % of control | dose: 400.0 mg/kg/injection, schedule: Q01DX009 (ip), vehicle: saline 95 % of control

Cc1cc(=O)n(Cc2ccccc2)c(=O)[nH]1
inactive: [14] 98 % of control | [15] 98 % of control | [16] 93 % of control

CON(C)c1nc(Cl)nc(N(C)OC)n1
inactive: [27] 96 % of control | [9] 97 % of control | [28] 94 % of control | [12] 105 % of control | [29] 107 % of control | [13] 105 % of control

Cc1cc(C)c(NC(=O)c2c(Br)c(Br)c(Br)c(Br)c2C(=O)O)c(C)c1
inactive: [10] 101 % of control | [11] 111 % of control | dose: 400.0 mg/kg/injection, schedule: Q04DX002 (ip), vehicle: Klucel (hydroxypropylcellulose) (HPC) 87 % of control

COc1ccc(Br)cc1CC=O
inactive: [27] 103 % of control | dose: 177.6 mg/kg/injection, schedule: Q01DX001 (ip), vehicle: carboxymethylcellulose (CMC) 95 % of control and 105 % of control | [28] 103 % of control | dose: 266.8 mg/kg/injection, schedule: Q01DX001 (ip), vehicle: carboxymethylcellulose (CMC) 97 % of control and 103 % of control | [29] 95 % of control and 103 % of control | dose: 600.0 mg/kg/injection, schedule: Q01DX001 (ip), vehicle: carboxymethylcellulose (CMC) 97 % of control and 103 % of control

O=c1[nH]nnc2nc(Cc3ccc([N+](=O)[O-])cc3)[nH]c12
inactive: dose: 100.0 mg/kg/injection, schedule: Q01DX001 (ip), vehicle: saline with Tween-80 98 % of control
